According to PubChem BioAssay AID1963847 (Molecular Pharmacology Branch, DTP, NCI, 2024):

Test system: 415267-285-R-J2-PDC complex spheroid viability
Assay: Anticancer human tumor 415267-285-R-J2-PDC patient-derived breast carcinoma cell line growth inhibition [POLQ]
Settings: for IC50: curve of first compound; for viability, T/C: stronger effect = lower value
Method in brief: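 PDC + HUVEC + MSC complex spheroids; POLQ inhibitors ± partner drugs; top conc. at/near clinical Cmax, else 10 microM (SN-38 1 microM), half-log dilutions; 37 degrees C, 5% CO2.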

[1] = second compound 0.0316 µM, first compound 0.0316 µM
[2] = second compound 0.0316 µM, first compound 0.1 µM
[3] = second compound 0.0316 µM, first compound 0.316 µM
[4] = second compound 0.0316 µM, first compound 1 µM
[5] = second compound 0.0316 µM, first compound 3.16 µM
[6] = second compound 0.0316 µM, first compound 10 µM
[7] = second compound 0.1 µM, first compound 0.0316 µM
[8] = second compound 0.1 µM, first compound 0.1 µM
[9] = second compound 0.1 µM, first compound 0.316 µM
[10] = second compound 0.1 µM, first compound 1 µM
[11] = second compound 0.1 µM, first compound 3.16 µM
[12] = second compound 0.1 µM, first compound 10 µM
[13] = second compound 0.316 µM, first compound 0.0316 µM
[14] = second compound 0.316 µM, first compound 0.1 µM
[15] = second compound 0.316 µM, first compound 0.316 µM
[16] = second compound 0.316 µM, first compound 1 µM
[17] = second compound 0.316 µM, first compound 3.16 µM
[18] = second compound 0.316 µM, first compound 10 µM
[19] = second compound 1 µM, first compound 0.0316 µM
[20] = second compound 1 µM, first compound 0.1 µM
[21] = second compound 1 µM, first compound 0.316 µM
[22] = second compound 1 µM, first compound 1 µM
[23] = second compound 1 µM, first compound 3.16 µM
[24] = second compound 1 µM, first compound 10 µM
[25] = second compound 3.16 µM, first compound 0.0316 µM
[26] = second compound 3.16 µM, first compound 0.1 µM
[27] = second compound 3.16 µM, first compound 0.316 µM
[28] = second compound 3.16 µM, first compound 1 µM
[29] = second compound 3.16 µM, first compound 3.16 µM
[30] = second compound 3.16 µM, first compound 10 µM
[31] = second compound 10 µM, first compound 0.0316 µM
[32] = second compound 10 µM, first compound 0.1 µM
[33] = second compound 10 µM, first compound 0.316 µM
[34] = second compound 10 µM, first compound 1 µM
[35] = second compound 10 µM, first compound 3.16 µM
[36] = second compound 10 µM, first compound 10 µM
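Note: spheroids exposed to compounds for one week before readout.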
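Throughout, for viability, T/C: luminescence used as stand-in measure of viable cells; 100% = DMSO vehicle control viability.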

C=CC(=O)N1CCN(c2nc(=O)n(-c3c(C)ccnc3C(C)C)c3nc(-c4c(O)cccc4F)c(F)cc23)C(C)C1 (stereo not given) + Cc1cccc(N(C)C(=O)C2C(O)CCN2c2nc(C)cc(C(F)(F)F)c2C#N)c1
IC50 (second compound 0.0316 µM): > 10 µM | IC50 (second compound 0.1 µM): > 10 µM | IC50 (second compound 0.316 µM): > 10 µM | IC50 (second compound 1 µM): > 10 µM | IC50 (second compound 3.16 µM): > 10 µM | IC50 (second compound 10 µM): > 10 µM | viability, T/C [1]: 101% | viability, T/C [2]: 104% | viability, T/C [3]: 102% | viability, T/C [4]: 104% | viability, T/C [5]: 111% | viability, T/C [6]: 93.5% | viability, T/C [7]: 98.4% | viability, T/C [8]: 95.6% | viability, T/C [9]: 98.7% | viability, T/C [10]: 103% | viability, T/C [11]: 100% | viability, T/C [12]: 97.7% | viability, T/C [13]: 103% | viability, T/C [14]: 106% | viability, T/C [15]: 105% | viability, T/C [16]: 105% | viability, T/C [17]: 99.5% | viability, T/C [18]: 102% | viability, T/C [19]: 95.8% | viability, T/C [20]: 105% | viability, T/C [21]: 106% | viability, T/C [22]: 99.8% | viability, T/C [23]: 112% | viability, T/C [24]: 91.4% | viability, T/C [25]: 99.2% | viability, T/C [26]: 104% | viability, T/C [27]: 107% | viability, T/C [28]: 102% | viability, T/C [29]: 99.1% | viability, T/C [30]: 96.7% | viability, T/C [31]: 100% | viability, T/C [32]: 90.8% | viability, T/C [33]: 101% | viability, T/C [34]: 102% | viability, T/C [35]: 94.4% | viability, T/C [36]: 88.8%

CC(C)n1c(=O)n(C)c2cnc3cc(F)c(-c4ccc(OCCCN5CCCCC5)nc4)cc3c21 + Cc1cccc(N(C)C(=O)C2C(O)CCN2c2nc(C)cc(C(F)(F)F)c2C#N)c1
IC50 (second compound 0.0316 µM): > 10 µM | IC50 (second compound 0.1 µM): > 10 µM | IC50 (second compound 0.316 µM): > 10 µM | IC50 (second compound 1 µM): > 10 µM | IC50 (second compound 3.16 µM): > 10 µM | IC50 (second compound 10 µM): > 10 µM | viability, T/C [1]: 88.5% | viability, T/C [2]: 107% | viability, T/C [3]: 100% | viability, T/C [4]: 110% | viability, T/C [5]: 111% | viability, T/C [6]: 93.8% | viability, T/C [7]: 89.7% | viability, T/C [8]: 88.6% | viability, T/C [9]: 105% | viability, T/C [10]: 101% | viability, T/C [11]: 101% | viability, T/C [12]: 80.6% | viability, T/C [13]: 103% | viability, T/C [14]: 98.5% | viability, T/C [15]: 105% | viability, T/C [16]: 105% | viability, T/C [17]: 111% | viability, T/C [18]: 92.5% | viability, T/C [19]: 102% | viability, T/C [20]: 94.8% | viability, T/C [21]: 108% | viability, T/C [22]: 109% | viability, T/C [23]: 104% | viability, T/C [24]: 87.5% | viability, T/C [25]: 94.4% | viability, T/C [26]: 111% | viability, T/C [27]: 96.7% | viability, T/C [28]: 105% | viability, T/C [29]: 87.5% | viability, T/C [30]: 81.9% | viability, T/C [31]: 99.1% | viability, T/C [32]: 86.1% | viability, T/C [33]: 90.4% | viability, T/C [34]: 96.8% | viability, T/C [35]: 87.6% | viability, T/C [36]: 81%

CC1COCCN1c1cc(-c2ccnn2C)c2ccnc(-c3ccn[nH]3)c2n1 (stereo not given) + Cc1cccc(N(C)C(=O)C2C(O)CCN2c2nc(C)cc(C(F)(F)F)c2C#N)c1
IC50 (second compound 0.0316 µM): < 0.0316 µM | IC50 (second compound 0.1 µM): < 0.0316 µM | IC50 (second compound 0.316 µM): < 0.0316 µM | IC50 (second compound 1 µM): 0.0339 µM | IC50 (second compound 3.16 µM): 0.0336 µM | IC50 (second compound 10 µM): 0.0359 µM | viability, T/C [1]: 44% | viability, T/C [2]: 17.2% | viability, T/C [3]: 6.77% | viability, T/C [4]: 4.72% | viability, T/C [5]: 4.84% | viability, T/C [6]: 4.51% | viability, T/C [7]: 41.2% | viability, T/C [8]: 11.3% | viability, T/C [9]: 6.11% | viability, T/C [10]: 4.5% | viability, T/C [11]: 4.14% | viability, T/C [12]: 5.26% | viability, T/C [13]: 47.2% | viability, T/C [14]: 13.3% | viability, T/C [15]: 5.28% | viability, T/C [16]: 4.19% | viability, T/C [17]: 4.21% | viability, T/C [18]: 4.67% | viability, T/C [19]: 52.6% | viability, T/C [20]: 10.9% | viability, T/C [21]: 6.08% | viability, T/C [22]: 4.95% | viability, T/C [23]: 4.35% | viability, T/C [24]: 4.81% | viability, T/C [25]: 52.2% | viability, T/C [26]: 10.7% | viability, T/C [27]: 5.26% | viability, T/C [28]: 4.41% | viability, T/C [29]: 4.33% | viability, T/C [30]: 4.61% | viability, T/C [31]: 53.4% | viability, T/C [32]: 22.9% | viability, T/C [33]: 5.93% | viability, T/C [34]: 4.73% | viability, T/C [35]: 5.68% | viability, T/C [36]: 4.55%

CCc1cc2c(N3CCc4c(cc(Cn5ccnc5)cc4-c4cn(C)nc4C(F)(F)F)C3=O)ccnc2c(OC)n1 + Cc1cccc(N(C)C(=O)C2C(O)CCN2c2nc(C)cc(C(F)(F)F)c2C#N)c1
IC50 (second compound 0.0316 µM): > 10 µM | IC50 (second compound 0.1 µM): > 10 µM | IC50 (second compound 0.316 µM): > 10 µM | IC50 (second compound 1 µM): > 10 µM | IC50 (second compound 3.16 µM): > 10 µM | IC50 (second compound 10 µM): > 10 µM | viability, T/C [1]: 88.4% | viability, T/C [2]: 94.8% | viability, T/C [3]: 88.7% | viability, T/C [4]: 86.2% | viability, T/C [5]: 92.8% | viability, T/C [6]: 79.2% | viability, T/C [7]: 102% | viability, T/C [8]: 99.8% | viability, T/C [9]: 80.2% | viability, T/C [10]: 89% | viability, T/C [11]: 95.4% | viability, T/C [12]: 77.2% | viability, T/C [13]: 105% | viability, T/C [14]: 96.1% | viability, T/C [15]: 88.5% | viability, T/C [16]: 88.7% | viability, T/C [17]: 89.8% | viability, T/C [18]: 88.7% | viability, T/C [19]: 92.3% | viability, T/C [20]: 91.5% | viability, T/C [21]: 88.1% | viability, T/C [22]: 88.2% | viability, T/C [23]: 91.2% | viability, T/C [24]: 86.2% | viability, T/C [25]: 102% | viability, T/C [26]: 98.3% | viability, T/C [27]: 82.3% | viability, T/C [28]: 101% | viability, T/C [29]: 92.2% | viability, T/C [30]: 85.4% | viability, T/C [31]: 100% | viability, T/C [32]: 100% | viability, T/C [33]: 99.6% | viability, T/C [34]: 99.8% | viability, T/C [35]: 82.5% | viability, T/C [36]: 77.8%

COc1ccc([C@@H](O)c2cc(-c3ncnc4cc(N5CCOCC5)ccc34)c(F)cc2Cl)nn1 + Cc1cccc(N(C)C(=O)C2C(O)CCN2c2nc(C)cc(C(F)(F)F)c2C#N)c1
IC50 (second compound 0.0316 µM): 7.65 µM | IC50 (second compound 0.1 µM): 7.73 µM | IC50 (second compound 0.316 µM): 7.44 µM | IC50 (second compound 1 µM): 7.62 µM | IC50 (second compound 3.16 µM): 7.22 µM | IC50 (second compound 10 µM): 4.74 µM | viability, T/C [1]: 89.5% | viability, T/C [2]: 103% | viability, T/C [3]: 98.9% | viability, T/C [4]: 102% | viability, T/C [5]: 74% | viability, T/C [6]: 42.7% | viability, T/C [7]: 93.9% | viability, T/C [8]: 102% | viability, T/C [9]: 110% | viability, T/C [10]: 91% | viability, T/C [11]: 82.1% | viability, T/C [12]: 40.9% | viability, T/C [13]: 99.3% | viability, T/C [14]: 102% | viability, T/C [15]: 98.5% | viability, T/C [16]: 100% | viability, T/C [17]: 81.3% | viability, T/C [18]: 39% | viability, T/C [19]: 99% | viability, T/C [20]: 91.3% | viability, T/C [21]: 92.7% | viability, T/C [22]: 93.2% | viability, T/C [23]: 69.4% | viability, T/C [24]: 44% | viability, T/C [25]: 93.1% | viability, T/C [26]: 100% | viability, T/C [27]: 98% | viability, T/C [28]: 88.9% | viability, T/C [29]: 75.5% | viability, T/C [30]: 39.9% | viability, T/C [31]: 101% | viability, T/C [32]: 99.3% | viability, T/C [33]: 94.5% | viability, T/C [34]: 86% | viability, T/C [35]: 59.7% | viability, T/C [36]: 31.6%
